Source: article PMC7884259 (Journal of medicinal chemistry, 2020)
Changes are numbered by the printed parent chain. Read-outs that look alike come from different tables or passages of the source. Where no end group is shown, it is not given here.

How the values were obtained:
ATAD2B bromodomain Y995A = biological target: T1, ATAD2B bromodomain Y995A (Homo sapiens, UniProt Q9ULI0, Y995A); test: ITC binding to the ATAD2B bromodomain mutant Y995A; settings: ITC at 5 °C, 20 mM NaH2PO4 pH 7.0, 150 mM NaCl; no binding in duplicate
T1 sequence (Q9ULI0 953-1085 Y995A): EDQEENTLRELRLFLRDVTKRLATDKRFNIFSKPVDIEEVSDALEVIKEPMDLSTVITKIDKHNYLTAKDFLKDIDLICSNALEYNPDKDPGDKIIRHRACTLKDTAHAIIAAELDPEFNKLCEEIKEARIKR

[1] = biological target: T2, ATAD2B bromodomain Y1037A (Homo sapiens, UniProt Q9ULI0, Y1037A); test: ITC binding to the ATAD2B bromodomain mutant Y1037A; settings: ITC at 5 °C, 20 mM NaH2PO4 pH 7.0, 150 mM NaCl; no binding in duplicate
T2 sequence (Q9ULI0 953-1085 Y1037A): T1 sequence (Q9ULI0 953-1085 Y995A) with A43Y, Y85A

[2] = biological target: T3, ATAD2Bshort bromodomain (lacks residues 988–992, VDIEE) (Homo sapiens, UniProt Q9ULI0, DEL988-992); test: ITC binding to the ATAD2Bshort splice variant bromodomain; settings: ITC at 5 °C, 20 mM NaH2PO4 pH 7.0, 150 mM NaCl; no binding in duplicate
T3 sequence (Q9ULI0 953-1080 isoform Q9ULI0-2): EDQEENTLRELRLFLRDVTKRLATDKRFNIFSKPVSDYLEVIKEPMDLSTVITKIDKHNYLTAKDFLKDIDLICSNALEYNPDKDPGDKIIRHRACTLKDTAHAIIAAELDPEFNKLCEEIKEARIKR

ATAD2 bromodomain [3] = settings: cited from earlier work
ATAD2B bromodomain = biological target: T4, ATAD2B bromodomain (Homo sapiens, UniProt Q9ULI0); test: ITC binding to the wild-type ATAD2B bromodomain
T4 sequence (Q9ULI0 953-1085): T1 sequence (Q9ULI0 953-1085 Y995A) with A43Y

ATAD2 bromodomain [4] = settings: time-resolved fluorescence energy transfer; cited from earlier work

Dissociation constant, Y995A ATAD2B bromodomain (ATAD2B bromodomain Y995A)	Dissociation constant, Y1037A ATAD2B bromodomain [1]	Dissociation constant, ATAD2Bshort bromodomain [2]	Compound	further results
no binding	no binding	no binding	SGRGK(Ac)GGK(Ac)GL-NH2 [H4K5acK8ac (res 1–10)]	–
no binding	no binding	no binding	SGRGK(Ac)QGGKARA-NH2 [H2AK5ac (res 1–12)]	–
no binding	no binding	no binding	SGRGK(Ac)GGKGL-NH2 [H4K5ac (res 1–10)]	Kd (ATAD2 bromodomain [3]; read-out: ATAD2 reported KDs, value is for the H4K5ac res 1–20 peptide): 22000 nM
–	–	–	RKSTGG(Kac)APRKQ [H3K14ac (res 8–19)]	ATAD2 reported KDs (ATAD2 bromodomain [3]; result is for the H3K14ac res 1–21 peptide): no binding (res 1–21)[14]
–	–	–	SGRGKGGK(Ac)GL-NH2 [H4K8ac (res 1–10)]	ATAD2 reported KDs (no KD available, interaction only) (ATAD2 bromodomain [3]; qualitative): NA, interaction shown[16]
–	–	–	LGK(Ac)GGAK(Ac)RHRK-NH2 [H4K12acK16ac (res 10–20)]	Kd (ATAD2B bromodomain): 214 ± 7 µM
no binding	no binding	no binding	GKGGKGLGKGGAKRHRK [H4 unmodified (res 4–17)]	–
–	–	–	H4K5acK12ac (1–25): diacetylated histone H4 residues 1–25 peptide of the cited TR-FRET assay	recognition by the ATAD2 bromodomain in TR-FRET (ATAD2 bromodomain [4]): recognizes
–	–	–	H4K5acK8acK12acK16ac (1–25): tetra-acetylated histone H4 residues 1–25 peptide of the cited TR-FRET assay	recognition by the ATAD2 bromodomain in TR-FRET (ATAD2 bromodomain [4]): recognizes

Compound	Dissociation constant, Y995A ATAD2B bromodomain (ATAD2B bromodomain Y995A)	Dissociation constant, Y1037A ATAD2B bromodomain [1]	Dissociation constant, ATAD2Bshort bromodomain [2]	further results
8-(((3R,4R)-3-((1,1-dioxidotetrahydro-2H-thiopyran-4-yl)-methoxy)-piperidin-4-yl)amino)-3-methyl-5-(5-methylpyridin-3-yl)-1,7-naphthyridin-2(1H)-one [compound 38, reference compound]	–	–	no binding	Kd (ATAD2 bromodomain [3]; read-out: ATAD2 reported KDs (binding affinity)): 90 nM
CC(=O)NCCCC[C@H](NC(=O)CNC(=O)[C@H](CC(C)C)NC(=O)CNC(=O)[C@H](CCCCN)NC(=O)CNC(=O)CNC(=O)[C@H](CCCCN)NC(=O)CN)C(=O)NCC(=O)NCC(=O)N[C@@H](C)C(=O)N[C@@H](CCCCN)C(=O)N[C@@H](CCCNC(=N)N)C(N)=O [H4K12ac (res 4–17)]	no binding	no binding	no binding	Kd (ATAD2B bromodomain): 50.5 ± 5.8 µM; Kd (ATAD2 bromodomain [3]; read-out: ATAD2 reported KDs, value is for the H4K12ac res 1–25 peptide): 2500 nM
